# Toxic doses and inconclusive results are not listed.
# Test system: BDF1 mice, P388 leukemia ip, median survival T/C
# Test: NCI In Vivo Anticancer Drug Screen. Data for tumor model P388 Leukemia (intraperitoneal) in B6D2F1 (BDF1) mice
# Conditions: endpoint: median survival time, higher = longer survival
# Method in brief: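 Antitumour effect was judged in vivo: survival in drug-treated mice, normalised to that of vehicle-dosed controls, gives the reported T/C.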
# [1] = dose: 50.0 mg/kg/injection, schedule: Q01DX009 (ip), vehicle: saline with Tween-80
# [2] = dose: 100.0 mg/kg/injection, schedule: Q01DX009 (ip), vehicle: saline with Tween-80
# [3] = dose: 100.0 mg/kg/injection, schedule: Q04DX003 (ip), vehicle: saline with Tween-80
# [4] = dose: 200.0 mg/kg/injection, schedule: Q04DX003 (ip), vehicle: saline with Tween-80
# [5] = dose: 400.0 mg/kg/injection, schedule: Q04DX003 (ip), vehicle: saline with Tween-80
SMILES,T/C [1],T/C [2],T/C [3],T/C [4],T/C [5],also measured
Oc1cccc2cccnc12,100 % of control,97 % of control,,,,
CCOC(=O)Nc1cc(NC/C(=N/O)c2ccc(OC)cc2)c([N+](=O)[O-])c(N)n1,,,,,,"T/C (dose: 12.5 mg/kg/injection, schedule: Q01DX001 (ip), vehicle: Klucel (hydroxypropylcellulose) (HPC)): 93 % of control; T/C (dose: 25.0 mg/kg/injection, schedule: Q01DX001 (ip), vehicle: Klucel (hydroxypropylcellulose) (HPC)): 93 % of control; T/C (dose: 50.0 mg/kg/injection, schedule: Q01DX001 (ip), vehicle: Klucel (hydroxypropylcellulose) (HPC)): 93 % of control"
Cc1cc(C)c2cc3cccc[n+]3cc2c1,,,,,,"T/C (dose: 4.0 mg/kg/injection, schedule: Q01DX010 (ip), vehicle: carboxymethylcellulose (CMC)): 115 % of control"
O=Cc1ccc(C(=O)O)cc1,,,100 % of control,109 % of control,113 % of control,
Nc1cc2c3ccccc3ncc2c2ccccc12,,,100 % of control,100 % of control,100 % of control,
CNC(=O)c1ccccc1Sc1ccccc1,104 % of control,98 % of control,,,,"T/C (dose: 200.0 mg/kg/injection, schedule: Q01DX009 (ip), vehicle: saline with Tween-80): 106 % of control"
